{"source": "patent US6548540B2", "about": "“Method of treating cancer using dithiocarbamate derivatives” (Charlotte-Mecklenburg Hospital Authority, priority 1998, dated 2003)", "molecules": {"B1": {"name": "ceruloplasmin: 132-kD glycoprotein carrying 7 copper atoms, the major copper-carrying protein in human plasma (protein, UniProt P00450 20-1065, looked up)", "Ceruloplasmin": "KEKHYYIGIIETTWDYASDHGEKKLISVDTEHSNIYLQNGPDRIGRLYKKALYLQYTDETFRTTIEKPVWLGFLGPIIKAETGDKVYVHLKNLASRPYTFHSHGITYYKEHEGAIYPDNTTDFQRADDKVYPGEQYTYMLLATEEQSPGEGDGNCVTRIYHSHIDAPKDIASGLIGPLIICKKDSLDKEKEKHIDREFVVMFSVVDENFSWYLEDNIKTYCSEPEKVDKDNEDFQESNRMYSVNGYTFGSLPGLSMCAEDRVKWYLFGMGNEVDVHAAFFHGQALTNKNYRIDTINLFPATLFDAYMVAQNPGEWMLSCQNLNHLKAGLQAFFQVQECNKSSSKDNIRGKHVRHYYIAAEEIIWNYAPSGIDIFTKENLTAPGSDSAVFFEQGTTRIGGSYKKLVYREYTDASFTNRKERGPEEEHLGILGPVIWAEVGDTIRVTFHNKGAYPLSIEPIGVRFNKNNEGTYYSPNYNPQSRSVPPSASHVAPTETFTYEWTVPKEVGPTNADPVCLAKMYYSAVEPTKDIFTGLIGPMKICKKGSLHANGRQKDVDKEFYLFPTVFDENESLLLEDNIRMFTTAPDQVDKEDEDFQESNKMHSMNGFMYGNQPGLTMCKGDSVVWYLFSAGNEADVHGIYFSGNTYLWRGERRDTANLFPQTSLTLHMWPDTEGTFNVECLTTDHYTGGMKQKYTVNQCRRQSEDSTFYLGERTYYIAAVEVEWDYSPQREWEKELHHLQEQNVSNAFLDKGEFYIGSKYKKVVYRQYTDSTFRVPVERKAEEEHLGILGPQLHADVGDKVKIIFKNMATRPYSIHAHGVQTESSTVTPTLPGETLTYVWKIPERSGAGTEDSACIPWAYYSTVDQVKDLYSGLIGPLIVCRRPYLKVFNPRRKLEFALLFLVFDENESWYLDDNIKTYSDHPEKVNKDDEEFIESNKMHAINGRMFGNLQGLTMHVGDEVNWYLMGMGNEIDLHTVHFHGHSFQYKHRGVYSSDVFDIFPGTYQTLEMFPRTPGIWLLHCHVTDHIHAGMETTYTVLQNEDTKSG"}}, "key": {"[1]": {"system": "tumor cell lines", "test": "Proliferation of tumor cell lines with redox, NO synthase or cyclooxygenase agents (cell line not given)", "type": "cell-based, human", "procedure": "Potential redox effects of disulfiram were studied in three sets of experiments. The importance of cellular glutathione (GSH) in mediating or modulating thiocarbamate toxicity was studied by measuring levels of intracellular GSH after treatment with disulfiram. […] Also, to assess whether a nonspecific antioxidant effect of disulfiram or PDTC might account for cellular growth inhibition, we studied the effect of the potent lipophilic antioxidant probucol (1.0 to 1,000 μM) on proliferation of malignant cell lines. […] To explore the role of cyclooxygenase inhibition on tumor cell growth, cells were cultured with or without disulfiram in the presence or absence of the cyclooxygenase-1 (COX1) and cyclooxygenase-2 (COX2) inhibitors indomethacin (5μg/ml) or sodium salicylate (1 mM). To probe whether disulfiram might be inducing growth retardation by interruption or stimulation of NO production, proliferation was studied with and without disulfiram in the presence and absence of the nitric oxide […] inhibitor Nω-nitro-L-arginine added to growth medium (100 μM). […] J. Respir. Cell Mol. Biol. 7:574-581 (1992); […], et al. R., supra; S. S. Brar, et al., “Requirement for reactive oxygen species in serum-induced and platelet-derived growth factor-induced growth of airway smooth muscle,” J. Biol. Chem. 274:20017-20026 (1999)). This assay empirically distinguishes between dead and living cells. For proliferation studies, cells were seeded into 24-well uncoated plastic plates (Costar) at 50,000 cells per well and cultured with respective media and mitogens. […] MTT-containing medium was removed, 0.5 ml dimethylsulfoxide (DMSO) was added to each well, and the absorbance of the solubilized purple formazan dye was measured at 540 nm. A total of 4-6 wells were studied at each treatment condition."}, "[2]": {"system": "M1619 melanoma cells", "test": "MTT proliferation assay, M1619 melanoma", "type": "cell-based, human", "conditions": "for antiproliferative activity of gold complexed with disulfiram: M1619, compared with DS 160 nM", "procedure": "(§1) Human malignant cell lines were obtained from American Type Tissue Culture Collection (Rockville, Md.). Melanoma cells lines CRL 1585 and 1619 were cultured in RPMI 1640 (GIBCO-BRL, Life Technologies, Grand Island, N.Y.) with 10% FBS and passed with nonenzymatic Cell Dissociation Solution® (Sigma). The prostate adenocarcinoma cell line CRL 1435 (PC-3) was also cultured in RPMI 1640 with 10% FBS but passed with 0.05% trypsin and 0.53 mM EDTA. The squamous lung carcinoma NCI-H520 and the adenosquamous lung carcinoma NCI-H596 cell lines were grown in RPMI 1640 supplemented with 10% FBS, 10 mM HEPES and 1.0 mM sodium pyruvate and passed with trypsin/EDTA. The small cell lung carcinoma NCI-H82 was cultured as a suspension in RPMI 1640 with 10% FBS. All of the above were grown in a 37° C. humidified environment containing 5% CO2/air. The breast carcinoma cell line MDA-MB-453 was grown in a 37° C. humidified environment with free gas exchange with atmospheric air using Leibovitz's L-15 medium with 2 mM L-glutamine and 10% FBS and was passed with trypsin/EDTA.\nThe effect of disulfiram (0.15 to 5.0 μM), diethyldithiocarbamate (DDC, 1.0 μM) or PDTC (0.625 to 5.0 μM) on proliferation of malignant cell lines was studied in cultures stimulated with 10% FBS. Cell numbers were quantitated 24-72 hours later. In some experiments disulfiram or PDTC were added immediately after cells were plated. In other experiments, cells were plated and allowed to grow for 24-72 hours before fresh media with disulfiram or PDTC was added, and cell numbers were assayed 24-72 hours later.\nFinally, a number of dithiocarbamate effects on cells have been attributed to increasing the intracellular levels of copper ions. To further probe the role of copper in mediating cytotoxicity from disulfiram, cells were cultured with or without addition of the impermeate Cu^2+ chelator bathocuprioinedisulfonic acid (BCPS, 100 μM) added to medium to sequester Cu^2+ in the extracellular compartment. Cells were also treated 12 hours with various concentration of disulfiram (0.625 to 5.0 μM) and intracellular copper levels were measured as outlined below.\nProliferation of cultured cells was quantitated using a previously reported calorimetric method based upon metabolic reduction of the soluble yellow tetrazolium dye 3-[4,5-dimethylthiazol]-2yl-2,5-diphenyl tetrazolium bromide (MTT) to its insoluble purple formazan by the action of mitochondrial succinyl dehydrogenase (See, e.g., S. J. Hirst, et al., “Quantifying proliferation of cultured human and rabbit airway smooth muscle in response to serum and platelet derived growth factor,” Am. J. Respir. Cell Mol. Biol. 7:574-581 (1992); R. Dashtaki, et al. R., supra; S. S. Brar, et al., “Requirement for reactive oxygen species in serum-induced and platelet-derived growth factor-induced growth of airway smooth muscle,” J. Biol. Chem. 274:20017-20026 (1999)). This assay empirically distinguishes between dead and living cells. For proliferation studies, cells were seeded into 24-well uncoated plastic plates (Costar) at 50,000 cells per well and cultured with respective media and mitogens."}, "[3]": {"system": "Melanoma M1585", "test": "MTT proliferation assay, M1585 melanoma", "type": "cell-based", "conditions": "Homo sapiens; M1585 melanoma cells; read-out: 50% inhibitor concentration (IC50)", "procedure": "as §1\nThe effect of disulfiram (0.15 to 5.0 μM), diethyldithiocarbamate (DDC, 1.0 μM) or PDTC (0.625 to 5.0 μM) on proliferation of malignant cell lines was studied in cultures stimulated with 10% FBS. Cell numbers were quantitated 24-72 hours later. In some experiments disulfiram or PDTC were added immediately after cells were plated. In other experiments, cells were plated and allowed to grow for 24-72 hours before fresh media with disulfiram or PDTC was added, and cell numbers were assayed 24-72 hours later. Synergy was studied between disulfiram and N,N′-bis(2-chloroethyl-N-nitrosourea (carmustine or BCNU, 1.0 to 1,000 μM) or cisplatin (0.1 to 100 μg/ml) added to medium. The effect of metals on disulfiram was studied with 0.2 to 10 μM copper (provided as CuSO4), zinc (as ZnCl2), silver (as silver lactate) or gold (as HAuCl4.3H2O) ions added to growth medium. No pH changes occurred with addition of metal salts to culture medium. To provide a biologically relevant source of copper, in some experiments medium was supplemented with human ceruloplasmin at doses replicating low and high normal adult serum concentrations (250 and 500 μg/ml).\nProliferation of cultured cells was quantitated using a previously reported calorimetric method based upon metabolic reduction of the soluble yellow tetrazolium dye 3-[4,5-dimethylthiazol]-2yl-2,5-diphenyl tetrazolium bromide (MTT) to its insoluble purple formazan by the action of mitochondrial succinyl dehydrogenase (See, e.g., S. J. Hirst, et al., “Quantifying proliferation of cultured human and rabbit airway smooth muscle in response to serum and platelet derived growth factor,” Am. J. Respir. Cell Mol. Biol. 7:574-581 (1992); R. Dashtaki, et al. R., supra; S. S. Brar, et al., “Requirement for reactive oxygen species in serum-induced and platelet-derived growth factor-induced growth of airway smooth muscle,” J. Biol. Chem. 274:20017-20026 (1999)). This assay empirically distinguishes between dead and living cells. For proliferation studies, cells were seeded into 24-well uncoated plastic plates (Costar) at 50,000 cells per well and cultured with respective media and mitogens. After 24-96 hours, medium was removed, cells were washed twice with 1 ml of sterile Dulbecco's modified phosphate buffered saline without Ca^2+ or Mg^2+ (DPBS), the medium was replaced with 1 ml/well fresh medium containing 100 μg/ml MTT, and plates were incubated an additional hour. MTT-containing medium was removed, 0.5 ml dimethylsulfoxide (DMSO) was added to each well, and the absorbance of the solubilized purple formazan dye was measured at 540 nm. A total of 4-6 wells were studied at each treatment condition. Preliminary studies were performed with 50-200 μg/ml MTT incubated for 15 minutes to 3 hours to determine the optimum concentration and incubation time at which the rate of conversion was linear and proportional to the number of cells present. […]"}}, "data": [{"molecule": "CC(C)(Sc1cc(C(C)(C)C)c(O)c(C(C)(C)C)c1)Sc1cc(C(C)(C)C)c(O)c(C(C)(C)C)c1", "note": "[probucol]", "values": [{"measurement": "growth of tumor cell lines", "setting": "[1]; probucol 1.0 to 1,000 μM, data not shown", "value": "did not significantly inhibit growth"}]}, {"molecule": "O=NN(CCCl)C(=O)NCCCl", "note": "[Carmustine]", "values": [{"measurement": "A540 of MTT Formazan", "setting": "[2]; carmustine 1 μM + DMSO vehicle, 24 hours", "value": "0.197 ± 0.004"}, {"measurement": "A540 of MTT Formazan", "setting": "[2]; carmustine 10 μM + DMSO vehicle, 24 hours", "value": "0.152 ± 0.011"}, {"measurement": "A540 of MTT Formazan", "setting": "[2]; carmustine 100 μM + DMSO vehicle, 24 hours", "value": "0.020 ± 0.002"}, {"measurement": "A540 of MTT Formazan", "setting": "[2]; carmustine 1,000 μM + DMSO vehicle, 24 hours", "value": "0.003 ± 0.000"}]}, {"molecule": "N.N.[Cl][Pt][Cl]", "note": "[Cisplatin, cisplatin]", "values": [{"measurement": "A540 of MTT Formazan", "setting": "[2]; cisplatin 1 ng/ml + DMSO vehicle, added after 48 hours, additional 24 hours", "value": "1.739 ± 0.041"}, {"measurement": "A540 of MTT Formazan", "setting": "[2]; cisplatin 10 ng/ml + DMSO vehicle, added after 48 hours, additional 24 hours", "value": "1.447 ± 0.047"}, {"measurement": "A540 of MTT Formazan", "setting": "[2]; cisplatin 100 ng/ml + DMSO vehicle, added after 48 hours, additional 24 hours", "value": "1.372 ± 0.052"}, {"measurement": "A540 of MTT Formazan", "setting": "[2]; cisplatin 1,000 ng/ml + DMSO vehicle, added after 48 hours, additional 24 hours", "value": "1.381 ± 0.098"}]}, {"molecule": "Cc1cc(-c2ccc(S(=O)(=O)O)cc2)c2ccc3c(-c4ccc(S(=O)(=O)O)cc4)cc(C)nc3c2n1", "note": "[BCPS, bathocuproinedisulfonic acid]", "values": [{"measurement": "effect of Cu2+ chelator on growth inhibition from disulfiram", "setting": "[2]; 1.25 μM disulfiram with 50 or 100 μM BCPS, 48 hr", "value": "greatly reduces growth inhibition"}]}, {"molecule": "CCN(CC)C(=S)[S-].O.O.O.[Na+]", "note": "[NaDDC, sodium diethyldithiocarbamate trihydrate]", "values": [{"measurement": "antiproliferative activity of the thiolate with DTT in medium", "setting": "[2]; NaDDC 1 μM plus DTT 100 μM, 48 hours", "value": "reduced by low concentrations of DTT"}]}, {"molecule": "[Cl-].[Cl-].[Zn+2]", "note": "[zinc chloride]", "values": [{"measurement": "effect of zinc on antiproliferative potential of disulfiram", "setting": "[2]; ZnCl2 with 0.625 μM disulfiram, grown 24 hours, additional 24 hr", "value": "substantially enhanced"}]}, {"molecule": "N=C(NCCC[C@H](N)C(=O)O)N[N+](=O)[O-]", "note": "[LNAME, Nω-nitro-L-arginine]", "values": [{"measurement": "increase of cellular growth", "setting": "[1]; LNAME alone (100 μM), vs DMSO vehicle control", "value": "23.7±2.3", "unit": "%"}]}, {"molecule": "S=C(S)N1CCCC1", "note": "[PDTC, Pyrrolidinedithiocarbamate]", "values": [{"measurement": "IC50", "setting": "[3]", "value": "~1250", "unit": "nM"}]}, {"molecule": "dichloro(diethylthiocarbamyl)gold (II) [AuDS]", "values": [{"measurement": "antiproliferative activity of gold complexed with disulfiram", "setting": "[2]; 48 hr", "value": "enhanced antiproliferative activity"}, {"measurement": "antiproliferative activity of gold complexed with disulfiram", "setting": "[2]; 48 hr, listed as complex of gold with disulfiram", "value": "antiproliferative at nM concentrations"}]}, {"molecule": "B1", "values": [{"measurement": "effect of ceruloplasmin on antiproliferative activity of disulfiram", "setting": "[2]; ceruloplasmin 500 μg/ml with disulfiram, 24 hours", "value": "enhance the antiproliferative activity of disulfiram"}]}]}
